Data published in US20130040979A1, “CCR1 INHIBITORS USEFUL FOR THE TREAMENT OF MULTIPLE MYELOMA AND OTHER DISORDERS” (Millennium Pharmaceuticals, Inc., priority 2007, published 2013).

Tests used:
Type in all cases: cell-based, human
[1] = test system: multiple myeloma cells co-cultured with osteoclasts; assay: Long-term co-culture of osteoclasts and multiple myeloma cells
Source text: MM primary cells: Patient tumor cells were isolated as described in Kiziltepe et al., Blood 110:709-718 (2007). Following appropriate informed consent, obtained in accordance with the Declaration of Helsinki and with approval by the Institutional Review Board of the Dana-Farber Cancer Institute (Boston, Mass.), MM patient cells were separated from bone marrow (BM) samples by antibody-mediated positive selection using anti-CD138 magnetic activated cell separation microbeads (Miltenyi Biotech, Gladbach, Germany).
(§1) Co-culture experiments: Osteoclasts were harvested with cell dissociation buffer (Invitrogen, Carlsbad, Calif.) and seeded in 96-well or 24-well plates (approximately 1.5−3×10^4 cells/cm^2). After washing, multiple myeloma cells were added to the wells and incubated with media or with Compound 51 (10 nM) for the specified times at 37° C. For multiple myeloma cell proliferation, DNA synthesis was measured by tritiated thymidine uptake (3H-TdR; Perkin Elmer, Boston, Mass.), pulsing multiple myeloma cells with 3H-TdR (0.5 μCi/well [0.0185 MBq]L) during the last 8 hours of 48-hour cultures. At the end of the culture, cells were harvested onto paper filters with an automatic cell harvester (Cambridge Technology, Cambridge, Mass.) and counted using the LKB Betaplate scintillation counter (Wallac, Gaithersburg, Md.). To assess cell survival, viable multiple myeloma cells were counted by trypan blue staining.
Osteoclasts were plated in a 24-well plate (3×10^4 cells/well) with either INA6 mutliple myeloma cells (5×10^3 cells/well) or primary patient multiple myeloma cells (3×10^5 cells/well) for 5 days using the general method described above.

[2] = test system: osteoclasts generated from peripheral blood mononuclear cells (PBMCs); assay: Osteoclast formation and TRAP assay
Description: Osteoclast formation. Osteoclasts were generated from peripheral blood mononuclear cells (PBMCs) from healthy volunteers by Ficoll-Paque gradient separation and cultured in 6-well or 96-well plates (0.5×10^6 cells/cm^2). After 2 hours, nonadherent PBMCs were removed, and adherent cells were cultured for 21 days in α-MEM containing 10% FBS and 1% penicillin-streptomycin (Mediatech, Herndon, Va.), as well as 50 ng/mL of macrophage colony-stimulating factor (M-CSF; R&D Systems, Minneapolis, Minn.) and RANKL (PeproTech, Rocky Hill, N.J.).
After 3 weeks, cells were fixed with citrate-acetone solution and stained for tartrate-resistant acid phosphatase (TRAP) using an acid phosphatase leukocyte staining kit (Sigma Chemical) according to the manufacturer's instructions. TRAP^+ OCs containing 3 or more nuclei per cell were enumerated. Each OC formation assay was performed at least 3 times using PBMCs from different donors.

[3] = test system: multiple myeloma cell adhesion to osteoclasts; assay: Adhesion assay: multiple myeloma cells to osteoclasts; conditions: 6 hours incubation; independent of CCR1 expression on MM cells
Description: (§2) Cell lines: The dexamethasone (Dex)-sensitive (MM.1S) human MM cell line was provided by Dr Steven Rosen (Northwestern University, Chicago, Ill.). The INA6 human IL-6-dependent MM cell line was provided by Dr Renate Burger (University of Kiel, Kiel, Germany) (see Burger et al., J. Hematol. 2:42-53 (2001)) and cultured in the presence of 2.5 ng/mL IL-6 (R&D Systems, Minneapolis, Minn.). The OPM1 myeloma cell line was provided by Dr Lief Bergsagel (Mayo Clinic, Scottsdale, Ariz.), and the U266 cell line was obtained from the American Type Culture Collection (Rockville, Md.). All MM cell lines were cultured in RPMI 1640 media (Sigma Chemical) containing 10% fetal bovine serum (FBS), 2 mM L-glutamine, 100 U/mL penicillin, and 100 μg/mL streptomycin (Gibco, Grand Island, N.Y.).
(§3) Multiple myeloma cell lines were labeled with calcein AM (Invitrogen) according to the manufacturer's instructions and plated in a 96-well plates with OCs, fibronectin (FBN; 20 μg/mL), or media, with or without Compound 51. After 6 hours of incubation, plates were washed and fluorescence of the adherent cells was measured using the Multimode Reader Mithras LB 940 (Berthold Technologies, Wildbad, Germany). […] As also shown in FIG. 3, there were no effects on MM cell adhesion to fibronection (FBN).

[4] = test system: MM cell adhesion to fibronectin (FBN); assay: Adhesion assay: multiple myeloma cells to fibronectin; conditions: 6 hours incubation, FBN 20 μg/mL
Description: as §2, §3

[5] = test system: osteoclast activity (bone resorption); assay: Pit formation assay (osteoclast bone resorption on dentin slices); conditions: 10 nM, 3 weeks
Description: Osteoclast activity was assayed by bone resorption enumerating resorption pits. PBMCs were cultured (0.5×10^6 cells/well) on dentin slices (Immunodiagnostic Systems, Boldon, United Kingdom) in 96-well plates as per the manufacturer's guidelines, and then stimulated with RANKL and M-CSF (50 ng/mL); Compound 51 was added as indicated in FIG. 2. After 3 weeks, adherent cells were scraped off gently with 0.1% Triton. Bone slices were washed in distilled water and stained with 1% toluidine solution. Resorption pits were then quantified by light microscopy using the public domain National Institutes of Health (NIH) Image J software version 1.36b. Each pit area assay was performed at least 3 times with PBMCs from different donors.

INA6 cells = assay: Short-term co-culture of osteoclasts and multiple myeloma cells (thymidine uptake); conditions: 48 hours
Description: as §1
Osteoclasts were seeded in a 96-well plate at a density of 10^4 cells/well and cocultured with INA6 cells (3×10^4 cells/well) for 48 hours.

**Q.** With `CC(C)(O)c1ccc2c(c1)C(=CCCN1CC[C@](O)(c3ccc(Cl)cc3)C(C)(C)C1)c1cccnc1CO2` [Compound 51, (4S)-4-(4-chlorophenyl)-1-{3-[7-(1-hydroxy-1-methylethyl)[1]benzoxepino[3,4-b]pyridin-5(11H)-ylidene]propyl}-3,3-dimethylpiperidin-4-ol] as the molecule, how does the “survival advantage conferred by osteoclasts” value (“survival advantage conferred” below) ([1]; INA6 cells, 5 days co-culture, 10 nM) read?
**A.** Its value is “almost completely abrogated”.

**Q.** What about the “survival advantage conferred” value ([1]; MM1.S cells (data not shown)) of the same molecule?
**A.** Its value is “same effect was also noted”.

**Q.** What about the “survival advantage conferred” value ([1]; primary MM cells, 5 days co-culture, 10 nM) of the same molecule?
**A.** The value was “almost completely abrogated”.

**Q.** What about the “reduction of osteoclast number compared to control” value ([2]; 10 nM, 3 weeks, TRAP+ OCs with 3 or more nuclei, p<0.05) of the same molecule?
**A.** Its value is 40-60%.

**Q.** What about the “dose dependence of decrease in osteoclast number” value ([2]; doses up to 100 nM) of the same molecule?
**A.** Its value is “No dose-dependent effect”.

**Q.** What about the “multiple myeloma cell adhesion to osteoclasts” value [3] of the same molecule?
**A.** The value was “almost complety inhibited”.

**Q.** And the “MM cell adhesion to fibronectin (FBN)” value [4]?
**A.** Its value is “no effects”.

**Q.** What about the “resorptive tracks and pit numbers” value ([5]; dentin slices) of the same molecule?
**A.** The value was “almost complete abrogation”.

**Q.** And the “bone resorption area, mean±SD, of total area per slice” value ([5]; control 8.7%±1.9%, P<0.01)?
**A.** The value was 2.4%±1.2.

**Q.** What about the “antiproliferative effect on MM cells alone” value (INA6 cells; no osteoclasts) of the same molecule?
**A.** The value was “only modest antiproliferative effects”.

**Q.** What about the “reduction of MM cell proliferative response induced by OCs” value (INA6 cells; INA6 cells co-cultured with osteoclasts, P<0.05) of the same molecule?
**A.** Its value is 50%.
